According to ChEMBL document CHEMBL5725313, “Highly selective c-Met inhibitors as anticancer agents” (2017):
pIC50: −log10 of the molar value.

molecular target: Hepatocyte growth factor receptor (Homo sapiens, UniProt P08581); test: c-Met In Vitro Kinase Assay: Optiplate-384 well plate (PerKinElmer), kinase buffer (50 mM Hepes pH7.5, 25 mM NaCl, 2 mM DTT, 0.01% Tween 20, 5 mM Mg2+, 0.5 mM Mn2+), c-Met kinase (1038-1346AA, prepared in-house), c-Met substrate (PerKinElmer, #TRF0127-M), Lance@Eu-W 1024-anti-phosphotyrosine (PT66), (PerKinElmer, #AD0068), ATP (Invitrogen), DMSO (Sigma, #34869), water (Millipore, model Milli-Q). A mixture of c-Met kinase (final concentration 12.5 nM) and test compound (final DMSO is 0.5%) is pre-incubated at 30° C. for 20 min. Then ATP (final concentration 2.5 uM) and kinase substrate (final concentration 50 nM) are added. The resulting mixture is kept at 30° C. for 1 hr, followed by addition of the c-Met antibody. After 1 hr, the plate is read at 615 nm and 665 nm. The ratio of absorption values at 665 nm and 615 nm is calculated and used for the data analysis as follows. This assay has a Minimum Significant Ratio (MSA) of 2-3.
Sequence (P08581 whole entry): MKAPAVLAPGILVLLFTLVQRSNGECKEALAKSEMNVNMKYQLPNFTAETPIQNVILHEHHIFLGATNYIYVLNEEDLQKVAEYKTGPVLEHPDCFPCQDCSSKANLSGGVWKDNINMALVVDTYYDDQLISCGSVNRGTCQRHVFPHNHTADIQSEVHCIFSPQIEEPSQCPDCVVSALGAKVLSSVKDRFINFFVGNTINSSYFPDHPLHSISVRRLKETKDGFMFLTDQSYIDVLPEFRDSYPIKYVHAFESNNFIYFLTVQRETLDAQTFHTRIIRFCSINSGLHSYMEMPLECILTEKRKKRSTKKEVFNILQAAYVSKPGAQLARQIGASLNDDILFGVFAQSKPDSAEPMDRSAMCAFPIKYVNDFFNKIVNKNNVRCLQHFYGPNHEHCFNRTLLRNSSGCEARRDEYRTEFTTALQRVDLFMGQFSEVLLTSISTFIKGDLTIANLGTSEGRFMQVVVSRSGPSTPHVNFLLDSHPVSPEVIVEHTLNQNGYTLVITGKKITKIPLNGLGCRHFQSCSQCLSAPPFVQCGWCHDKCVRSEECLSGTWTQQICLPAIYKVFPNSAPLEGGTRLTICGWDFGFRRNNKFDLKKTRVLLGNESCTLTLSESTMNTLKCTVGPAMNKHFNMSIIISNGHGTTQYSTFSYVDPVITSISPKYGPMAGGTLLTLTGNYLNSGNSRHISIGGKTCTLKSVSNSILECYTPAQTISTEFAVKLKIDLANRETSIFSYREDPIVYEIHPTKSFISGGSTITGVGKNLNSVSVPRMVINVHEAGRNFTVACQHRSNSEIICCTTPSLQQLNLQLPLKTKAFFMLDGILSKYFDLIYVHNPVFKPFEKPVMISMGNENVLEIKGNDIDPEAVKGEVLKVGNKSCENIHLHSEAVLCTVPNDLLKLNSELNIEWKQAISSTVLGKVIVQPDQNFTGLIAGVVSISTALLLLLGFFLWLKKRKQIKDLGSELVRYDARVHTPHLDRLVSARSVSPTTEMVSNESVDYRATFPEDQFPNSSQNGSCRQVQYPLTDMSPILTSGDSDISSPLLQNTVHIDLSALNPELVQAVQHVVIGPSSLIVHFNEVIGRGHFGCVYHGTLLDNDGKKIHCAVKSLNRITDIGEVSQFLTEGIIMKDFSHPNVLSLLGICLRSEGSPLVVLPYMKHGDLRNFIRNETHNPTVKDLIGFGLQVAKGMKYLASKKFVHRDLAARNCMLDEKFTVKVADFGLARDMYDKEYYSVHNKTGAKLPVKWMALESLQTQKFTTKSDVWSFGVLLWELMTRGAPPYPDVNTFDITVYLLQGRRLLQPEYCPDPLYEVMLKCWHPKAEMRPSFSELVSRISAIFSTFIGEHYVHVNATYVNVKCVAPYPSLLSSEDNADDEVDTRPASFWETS

pIC50 | SMILES
6.83 | CNC(=O)c1ccc(-c2ccc3nnc(C(F)(F)c4ccc5nn(C)cc5c4F)n3n2)cn1
6.58 | Cn1cc2c(F)c(C(F)(F)c3nnc4ccc(-c5cncc(F)c5)nn34)ccc2n1
6.92 | Cc1cncc(-c2ccc3nnc(C(F)(F)c4ccc5nn(C)cc5c4F)n3n2)c1
6.71 | Cn1cc2c(F)c(C(F)(F)c3nnc4ccc(-c5cncc(Cl)c5)nn34)ccc2n1
